Results: patent US6562620B2, “Medium to promote islet cell survival” (McGill University, priority 1997, dated 2003)

Experiments:
erk1 and erk2 = erk1 and erk2 activation in isolated islets; assay type: cell-based; settings: human islets; FIG. 6
From the text: (§1) The former two pathways are known to be associated with the induction of the apoptotic program, while the latter may be protective.
Signalling through erk has been associated with cell differentiation and cell survival (FIG. 6).

islets = experiment: Cell death detection ELISA (DNA fragmentation) of cultured islets; assay type: cell-based, Syrian golden hamsters; settings: 3 days serum then 9 days in 25% DCM or 34 ng/ml IGF-II; mean±SEM, n=6; FIG. 10
Protocol: Three experimental groups were designed for this study: Group 1 (control), with 100 islets per culture flask; Group 2 (islets plus ducts), with 100 islets plus 80 ducts per flask; and Group 3 (islets in 25% DCM), with 100 islets per flask.
All tissues were embedded in rat tail collagen and incubated in a humidified atmosphere of 95% air, 5% CO2 at 37° C. The baseline medium for all groups was DMEM/F12, supplemented with 10% NuSerum for three days at the start of the culture period, followed by 9 days of serum-free incubation. The medium was changed every other day.
After a 12 day incubation period, the media was removed and 3 ml of collagenase XI (0.25 mg/ml) was added to each flask for 40 min. The islets were hand-picked and washed three times in Hank's buffered salt solution (HBSS, Gibco, Montreal, Quebec, Canada). The presence of DNA fragmentation, a characteristic feature of apoptosis was determined using a cell death detection ELISA (Boehringer Mannheim, Laval, Quebec). The results were expressed as absorbance at 405 nm and corrected for total DNA content. DNA (μg) was measured by fluorometry using disbenzimidazole (Hoechst 33258, Sigma, Montreal, Quebec) as described (Labarca & Pagen, 1987, Analytical Biochemistry 102:44-52).
The islets were embedded in rat tail collagen and cultured in DMEM/F12 supplemented with 10% NuSerum. […]

p38 = p38 activation in canine islets (Western blot); assay type: cell-based; settings: collagen 400 μg/ml
From the text: as §1
Signaling through the p38 MAP kinase is one pathway whose downstream effectors have been implicated in […].
In addition to growth factors, evidence is provided for the beneficial effect of matrix molecules, e.g. fibronectin for human islets, and collagen for canine islets (FIGS. 4 and 5) The data for p38 activation and its modulation by collagen represents the effect of 200 μg/ml of collagen type 1. Not shown, is that collagen in a concentration of 400 μg/ml will decrease p38 activation by over 50%.

With IGF-I: insulin-like growth factor-1 the “effect on erk1 and erk2 activation” value (erk1 and erk2) was “positive effect”.

With “IGF-II: insulin-like growth factor II, growth factor added at 34 ng/ml” the “cell death ELISA (DNA fragmentation), IGF-II study” value (islets) was 2.5 ± 1.0.

With collagen the “decrease of p38 activation” value (p38) was “over 50%”.

insulin was tested, and the “effect on erk1 and erk2 activation” value (erk1 and erk2) was “positive effect”.
